Article PMC13168289, “Potent acridone antimalarial against all three life stages of Plasmodium” (Nature Communications, 2026)
Where two headings read alike, the source gives them in different places.

Assays:
[1] = tested on: P. falciparum K13 mutant parasites SP045 and SP060; test: Growth, Resistance, and Recovery Assay (GRRA), ring-stage survival dose-response; type: cell-based, Plasmodium falciparum; settings: Plasmodium falciparum
Method: These isolates carry the validated R561H Kelch 13 propeller domain mutation associated with delayed parasite clearance in East Africa[24],[25]. Using the 6-hour GRRA[23], all strains were thawed, frozen, and cultured under standard conditions at 5% hematocrit. Samples parasitemia was measured by flow cytometry. Parasite cultures that were predominantly segmented schizonts were synchronized using a single Percoll layer method. Cultures that met quality control requirements of ≥70% early ring stage and ≥1% parasitemia were adjusted to 0.25% parasitemia at 2% hematocrit. […] The GRRA50 implements 11 RSA experiments to generate a dose-response curve for each parasite line per drug. Master mixes of samples were aliquoted into 2 technical replicates of 275 µL each in 96 well plates (2 treated each condition, 2 untreated). At 6 h post-exposure, 200 µL of media was removed from the wells and replaced with 200 µL of incomplete media and spun for 3 min at 800 g to rinse. The rinse was repeated a total of 3 times, after which 200 µL complete media was added back to the wells. At 120 h post-treatment, thin microscopy smears were made using 2 µL of culture for each sample and 20 µL of culture was transferred to PCR strips and stored at −80 °C until qPCR quantification. A standard curve of known parasitemia was generated using the NF54 parasite line for each qPCR quantification for conversion from Cycle threshold (Ct) to parasitemia and comparison between qPCR experiments. Replicate viability was calculated according to the GRRA method. Each individual reaction mixture and cycling conditions were set to previously used methods. Ct was calculated using AB1 SDA 2.4.1. software. […] We find that commonly reported thresholds (cutoffs) for resistance (e.g., 1% survival in traditional RSA) may not be broadly applicable, especially with lower thresholds subject to potential artifacts due to markedly low survival rates of ART-sensitive and low-level ART-resistant parasites. Regular RSA relies on a single drug concentration, 700 nM. To gain a more fine-scale quantification to compare drug susceptibilities with relevance to therapeutic success and failure, we developed the GRRA50 to generate full dose-response curves for precise quantitative comparisons.

[2] = tested on: P. falciparum mutant T111 lines; test: drug susceptibility of T111-selected cyt b mutant lines; type: cell-based, Plasmodium falciparum
Method: DNA extractions were performed on clonal parasites using the QIAamp DNA extraction kit (QIAGEN Inc, Valencia, CA) or ZYMO Quick gDNA Miniprep kit (Zymo Research Corp, Irvine, CA). For sequencing of the open reading frame of pfcytb, PCR was performed with genomic DNA using forward and reverse flanking primers for cyt b primer 1: 5’-[…]-3’ and primer 2: 5’-[…]-3’. PCR products were subjected to enzymatic cleanup with ExoSAP-IT (Thermo Fisher Scientific) and sent for Sanger sequencing (Eurofins Genomics, Louisville, KY) with PCR primer 2 paired with an internal forward primer: 5’-[…]-3’ and an internal reverse primer: 5’-[…]-3’. Sequences were assembled using 4Peaks software (Nucleobytes, Amsterdam, Netherlands) and aligned with Clustal Omega (EMBL-EBI). For sequencing of the open reading frame of pfdhodh, PCR was performed with genomic DNA using forward primer: 5’-[…]-3’ and reverse primer: 5’-[…]-3’. PCR products were prepared for Sanger sequencing and analyzed as described above, except using two forward primers: 5’-[…]-3’ and 5’-[…]-3’ and with two reverse primers: 5’-[…]-3’ and 5’-[…]-3’.
(§1) Drug susceptibility assays against P. falciparum strains were performed using a SYBR Green based assay. D6 and Dd2 were obtained from MR4. Tm90-C2B was obtained from WRAIR. Dd2-D1^I22L and ELQ-300 were obtained from VAPORHCS. D10yDHODH was obtained as a courtesy from Dr. Akhil Vaidya at Drexel University. P. yoelii ATV^r and ELQ-300^r clones were obtained from VAPORHCS.

[3] = tested on: P. falciparum D6, Dd2, Tm90-C2B, Dd2-D1^I22L, D10yDHODH; test: microbe, parasite or virus in culture; type: cell-based, Plasmodium falciparum; settings: read-out: in vitro IC50 vs P. falciparum
Method: as §1

[4] = tested on: P. yoelii wild type, ATV^r and ELQ-300^r clones; test: 4-day suppression model with ATV- and ELQ-300-resistant clones; type: in vivo, P. yoelii in CF1 mice; settings: (95% CI)
Excerpt: Animals were housed at the VAPORHCS in Thoren Maxi-Miser microisolator cages (78 sq. in. floor space) with a maximum density of five females or four males per cage. Cages were maintained on a 12-h light/dark cycle and provided with autoclaved nesting materials (nestlets) for environmental enrichment. All mice had ad libitum access to food and water. Four- to five-week-old female and male outbred CF1 mice (Charles River Laboratories, Raleigh, NC, USA) were randomly assigned to treatment and control groups using a simple randomization procedure (e.g., computer-generated random numbers) to ensure balanced distribution of baseline body weights and starting parasitemia levels across all cohorts. Groups of four mice (n = 4, mean body weight of each group was ~30 g) were infected intravenously with 3.5 × 10^4 P. yoelii (Kenya strain, MRA-428) from a donor animal. Drug administration commenced the day after the animals were inoculated (Day 1). The test drug or the drug combination was dissolved in PEG-400 and administered by oral gavage once daily for 4 successive days in the 4-day suppression model, but only once on Day 1 in the single-dose cure model. Blood was collected via the tail vein with the aid of a syringe needle on Day 5 and then at weekly intervals through Day 28. Blood films were Giemsa-stained and examined microscopically to determine the level of parasitemia. All mice were observed daily to assess clinical signs. Animals with observable parasitemia following the experiments were euthanized; animals cleared of parasitemia from their bloodstream were observed daily with assessment of parasitemia performed weekly until Day 28, at which point, the animal(s) were scored as cured of the infection and then humanely euthanized. All treated mice with a negative smear on Day 28 were considered cured (100% protection).
as §1

[5] = cytotoxicity against HepG2 cells; type: cell-based; settings: human, HepG2 cells; read-out: inhibition IC50 vs HepG2
Method: Cytotoxicity was evaluated in human HepG2 liver cells, using an MTT assay. Briefly, HepG2 cells were cultured in complete Dulbecco’s modified Eagle’s medium (DMEM; Gibco-Invitrogen, No. 11995-065) prepared by supplementing DMEM with 10% heat inactivated FBS (Gibco-Invitrogen, No. 16000-036), 100 units/mL penicillin, and 100 µg/mL streptomycin. Cell viability was assessed using trypan blue. Ninety-six-well plates were seeded with 2 × 10^4 cells per well and incubated at 37 °C overnight in a humidified 5% CO2 atmosphere. Test compound plates were prepared with an INTEGRA assist plus station and 96-well plates containing 11 duplicate 2-fold serial dilutions of test compound suspended in DMSO. The diluted test compound was then added to the corresponding well preseeded with HepG2 cells. […] After incubation, 20 µL of a 0.1 mg/mL solution of resazurin diluted in PBS was added to each well, and all plates were subsequently incubated for 3–4 h in an incubator. Absorbance was determined with the Molecular Devices SpectraMax plate reader. Three independent experiments, each in duplicate, were performed, and the IC50 values were determined using GraphPad Prism software (Version 10) using the non-linear regression equation (sigmoidal dose-response, variable slope).

[6] = Plasmodium falciparum, DD2, Supplementary Table 4, Dd2
[7] = Plasmodium falciparum, DD2, Supplementary Table 4, Dd2-A131S-140I-259L-264L
[8] = Plasmodium falciparum, DD2, Supplementary Table 4, Dd2-B131S-140I-259L-264L
[9] = Plasmodium falciparum, DD2, Supplementary Table 4, Dd2-D0119L-131S-259L (pfdhodh mutation)
[10] = Plasmodium falciparum, DD2, Supplementary Table 4, Dd2-D1131S-140I-259L (pfdhodh mutation)
[11] = Dd2-A^131S-140I-259L-264L, read-out: inhibition IC50 vs P. falciparum
[12] = Dd2-A^131S-140I-259L, read-out: inhibition IC50 vs P. falciparum
[13] = Dd2-B^87V-131S-140I-259L, read-out: inhibition IC50 vs P. falciparum
[14] = Dd2-B^131S-140I-259L-264L, read-out: inhibition IC50 vs P. falciparum
[15] = Dd2-C0^119L-131S-259L (pfdhodh mutation), read-out: inhibition IC50 vs P. falciparum
[16] = Dd2-C1^131S-140I-259L (pfdhodh mutation), read-out: inhibition IC50 vs P. falciparum
[17] = Dd2, read-out: inhibition IC50 vs P. falciparum
[18] = Dd2^131S-259L, read-out: inhibition IC50 vs P. falciparum
[19] = Dd2^131S, read-out: inhibition IC50 vs P. falciparum
[20] = Dd2^259L, read-out: inhibition IC50 vs P. falciparum

## C[C@H]1[C@@H](O)O[C@@H]2O[C@@]3(C)CC[C@H]4[C@H](C)CC[C@@H]1[C@@]24OO3 [DHA, dihydroartemisinin]
[1]; read-out: GRRA50, SP045 (K13 V555A, ART-S)
  IC50: 7.7 nM
[1]; read-out: GRRA50, SP060 (K13 R561H, ART-R)
  IC50: 25 nM
[2]; [6]
  IC50: 1.7 ± 0.14 nM
[2]; [7]
  IC50: 2.3 ± 0.25 nM
[2]; [8]
  IC50: 2.3 ± 0.18 nM
[2]; [9]
  IC50: 2.2 ± 0.18 nM
[2]; [10]
  IC50: 2.4 ± 0.2 nM

## Cc1cc(Nc2ccc(S(F)(F)(F)(F)F)cc2)n2nc(C(C)(F)F)nc2n1 [DSM265]
[2]; Plasmodium falciparum, DD2, read-out: inhibition IC50 vs P. falciparum, Dd2
  IC50: 3.2 ± 0.3 nM
[2]; Plasmodium falciparum, DD2, read-out: inhibition IC50 vs P. falciparum, Dd2-A^131S-140I-259L
  IC50: 3.2 ± 0.52 nM
[2]; Plasmodium falciparum, DD2, read-out: inhibition IC50 vs P. falciparum, Dd2-A^131S-140I-259L-264L
  IC50: 1.2 ± 0.075 nM
[2]; Plasmodium falciparum, DD2, read-out: inhibition IC50 vs P. falciparum, Dd2-B^87V-131S-140I-259L
  IC50: 3.5 ± 0.37 nM
[2]; Plasmodium falciparum, DD2, read-out: inhibition IC50 vs P. falciparum, Dd2-B^131S-140I-259L-264L
  IC50: 2.8 ± 0.3 nM
[2]; Plasmodium falciparum, DD2, read-out: inhibition IC50 vs P. falciparum, Dd2-C0^119L-131S-259L (pfdhodh mutation)
  IC50: 795 ± 235 nM
[2]; Plasmodium falciparum, DD2, read-out: inhibition IC50 vs P. falciparum, Dd2-C1^131S-140I-259L (pfdhodh mutation)
  IC50: 563 ± 203 nM
[2]; Plasmodium falciparum, DD2, read-out: inhibition IC50 vs P. falciparum, Dd2^131S
  IC50: 1.9 ± 0.22 nM
[2]; Plasmodium falciparum, DD2, read-out: inhibition IC50 vs P. falciparum, Dd2^131S-259L
  IC50: 2.8 ± 1.2 nM
[2]; Plasmodium falciparum, DD2, read-out: inhibition IC50 vs P. falciparum, Dd2^259L
  IC50: 3.3 ± 1 nM

## COc1cc2[nH]c(C)c(-c3ccc(Oc4ccc(OC(F)(F)F)cc4)cc3)c(=O)c2cc1Cl [ELQ-300]
[2]; [11]
  IC50: 35 ± 3.2 nM
[2]; [12]
  IC50: 52 ± 5.5 nM
[2]; [13]
  IC50: 67 ± 4.6 nM
[2]; [14]
  IC50: 25 ± 2.7 nM
[2]; [15]
  IC50: 221 ± 50 nM
[2]; [16]
  IC50: 225 ± 73 nM
[2]; [17]
  IC50: 38 ± 5 nM
[2]; [18]
  IC50: 26 ± 5.2 nM
[2]; [19]
  IC50: 20 ± 5.8 nM
[2]; [20]
  IC50: 23 ± 4.3 nM
[3]; D6
  IC50: 3.5 ± 0.23 nM
[3]; D10yDHODH
  IC50: > 2500 nM
[3]; Dd2-D1^I22L (ELQ-300-resistant)
  IC50: 245 ± 27 nM
[3]; Dd2
  IC50: 3.1 ± 0.15 nM
[3]; Tm90-C2B (cyt b Y268S, ATV-resistant)
  IC50: 1.3 ± 0.084 nM
[4]; P. yoelii ATVrY268S
  ED50: 0.040 (0.036–0.044) mg/kg/day
[4]; P. yoelii ELQ-300rI22L
  ED50: 1.27 (0.97–1.67) mg/kg/day
[4]; P. yoelii wild type
  ED50: 0.031 (0.029–0.033) mg/kg/day

## CCCCN(CCCC)CC(O)c1cc(Cl)cc2c1-c1ccc(Cl)cc1/C2=C/c1ccc(Cl)cc1 (stereo not drawn) [LUM, lumefantrine]
[2]; [6]
  IC50: 1.2 ± 0.098 nM
[2]; [7]
  IC50: 1.7 ± 0.086 nM
[2]; [8]
  IC50: 1.7 ± 0.36 nM
[2]; [9]
  IC50: 1.5 ± 0.11 nM
[2]; [10]
  IC50: 2.4 ± 0.11 nM

## CO/C(=C/C(N)=O)[C@H](C)[C@H](/C=C/c1csc(-c2csc([C@@H](C)/C=C/C=C/C(C)C)n2)n1)OC [MYX, myxothiazol]
[2]; [11]
  IC50: 16 ± 4.1 nM
[2]; [12]
  IC50: 192 ± 11 nM
[2]; [13]
  IC50: 373 ± 11 nM
[2]; [14]
  IC50: 34 ± 3.3 nM
[2]; [15]
  IC50: 1540 ± 110 nM
[2]; [16]
  IC50: 723 ± 141 nM
[2]; [17]
  IC50: 24 ± 3.4 nM
[2]; [18]
  IC50: 975 ± 139 nM
[2]; [19]
  IC50: 383 ± 38 nM
[2]; [20]
  IC50: 64 ± 13 nM

## Clc1ccc2c(N3CCN(CCCN4CCN(c5ccnc6cc(Cl)ccc56)CC4)CC3)ccnc2c1 [PIP, piperaquine]
[2]; [6]
  IC50: 7.4 ± 0.57 nM
[2]; [7]
  IC50: 9.9 ± 0.65 nM
[2]; [8]
  IC50: 12 ± 2.3 nM
[2]; [9]
  IC50: 11 ± 1.2 nM
[2]; [10]
  IC50: 9.1 ± 1.7 nM

## OC(c1cc(C(F)(F)F)nc2c(C(F)(F)F)cccc12)C1CCCCN1 (stereo not drawn) [mefloquine]
[5]
  IC50 at 24 h: 4940 nM

## ELQ-400
[2]; [11]
  IC50: 80 ± 15 nM
[2]; [12]
  IC50: 133 ± 17 nM
[2]; [13]
  IC50: 177 ± 3.1 nM
[2]; [14]
  IC50: 126 ± 32 nM
[2]; [15]
  IC50: 255 ± 62 nM
[2]; [16]
  IC50: 501 ± 101 nM
[2]; [17]
  IC50: 4 ± 0.45 nM
[2]; [18]
  IC50: 28 ± 13 nM
[2]; [19]
  IC50: 4.2 ± 0.41 nM
[2]; [20]
  IC50: 24 ± 6.7 nM
